Molecules are shown by their SMILES.

A word on the LD50: it is the dose expected to kill half of the subjects tested. The low end stands for greater toxicity, the high end for lower toxicity.

The subject of one data set is distemper. As to the kind of experiment: Investigation of clinical effectiveness in dogs with distemper. The class given is in vivo. The note with it: 2-4 ml of 0,5% solution intramuscularly twice daily for 3-10 days. The procedure: Investigation of clinical effectiveness in dogs with distemper
Dogs with an established diagnosis of distemper (duration of the disease from 10 to 30 days; in 3 animals--the intestinal form of the disease, in 2- pulmonary form, and in 3 animals--the neuro-paralytic stage) were inoculated intramuscularly with 2-4 ml (depending on the animal's weight) of 0,5% solution of the test compound I in distilled water twice daily for 3-10 days.

Data set [1] relates to Staphylococcus aureus Wood 46. Put plainly: Investigation of the staphylococcal activity. The class given is in vivo, CBA mice infected with Staphylococcus aureus Wood 46. Particulars: dose of 1 μg; statement in words. The procedure:
Investigation of the staphylococcal activity
The preparation was inoculated subcutaneously to CBA mice in doses from 0,1 to 10 μg per mouse, after which the animals were inoculated with 1,25×10^6 microbial cells of Staphylococcus aureus Wood 46.

Data set [2] deals with hemopoietic stem cells (HSC). Put plainly: Investigation of the effect on hemopoietic stem cell: release into the blood (exogenous colony formation). The data set is classed as in vivo, mice. The note with it: statement in words. As to the method: Investigation of the effect on hemopoietic stem cell
Compound I was diluted in physiological saline solution to a concentration of […]. Mice of the experimental groups were inoculated with 0,2 ml of one of the obtained solutions (0,5 and 1 μg/mouse respectively) intraperitoneally. Control animals were given injections of physiological saline solutions. At 1, 2, 3, 4 and 7 days after administration of the test compound, the animals were given heparin (40 units/mouse), and then specimens of the peripheral blood, spleen and bone marrow from thighbones. The blood was diluted 1:1 with physiological saline solution. Bone marrow and spleen suspensions were prepared by the standard method. The content of hemopoietic stem cells (HSC) in the blood, bone marrow and spleens of the animals treated with the preparation were tested by the method of exogenous colony formation in the spleen of syngeneic lethally irradiated recipients; more specifically, diluted peripheral blood (0,1 ml), bone marrow cells (3-5 ×10^4 cells) or spleen cells (5×10^5 cells) were inoculated to lethally irradiated syngeneic recipients which were killed at 8-9 days; their spleens were removed, fixed in Bouin's solution, and the number of visible plaques or colonies developing from HSC was counted.

A further data set can be described thus: acute toxicity in mice. The data set is classed as in vivo. As to the method:
The novel complex has low toxicity. In investigations of acute toxicity in mice, the LD50 is 900 mg per kilo body weight.

For data set [3], the system named is α, β, γ interferons in mouse serum.
Experimental: Investigation of induction of α, β, γ interferons in mouse serum in vivo
The level of interferon synthesis in the blood serum was determined at various intervals (5, 24, 48, 72 hours). Interferon titrations were carried out in L-929 cell cultures. The test virus was mouse encephalomyocarditis virus.
Data set [4] has as its system hemopoietic stem cells (HSC). Put plainly: Effect on proliferation of HSC (S-phase, oxyurea treatment). The class given is in vivo, mice. The note with it: statement in words.
The test system of data set [5] is interferon. Particulars: statement in words; cited from earlier work.
The subject of a further data set is γ-interferon. Particulars: suspension of mononuclear cells in vitro; cited from earlier work.
The subject of data set [6] is interferon. The note with it: mice, oral administration; cited from earlier work.

Take `O=C1[O][Ge]2([O]C(=O)c3cccc1n3)[O]C(=O)c1cccc(n1)C(=O)[O]2` [Compound I, germanium bis(pyridine-2,6-dicarboxylate)]: the clinical outcome in the data set on distemper is listed as “all the animals became clinically normal”. Further, the solubility in chloroform result in the data set “solubility” (chloroform) is given as “insoluble”. Further, the solubility in diethylformamide result in “solubility” (diethylformamide) is recorded as “moderately soluble”. Also, the “solubility in dimethyl sulphoxide” value in “solubility” (dimethyl sulphoxide) is on record as “moderately soluble”. In addition, the solubility in ethanol entry in “solubility” (ethanol) is given as “insoluble”. In the data set “solubility” (ether), the solubility in ether entry was “insoluble”. Further, in “solubility” (hydrocarbons), the solubility in hydrocarbons result was “insoluble”. The solubility in water result in the data set “solubility” (water) is given as “moderately soluble”. The “resistance of mice to staphylococcus” value in data set [1] is listed as “enhances the resistance of mice to staphylococcus”. In addition, the “number of HSC in the blood” value in [2] is “increases the number of HSC in the blood”. In the data set “acute toxicity in mice” (mouse, in vivo, mice, acute toxicity), this molecule displayed a median lethal dose (LD50) of 900 mg/kg. Further, the toxicity entry in “acute toxicity in mice” (statement in words) is “low toxicity”. Besides, in [3] (at later intervals postinoculation), the “γ interferon in serum” value is reported as “at later intervals γ interferon”. In addition, in [3] (within the first 5 hours postinoculation), the “interferons α and β in serum” value was “detectable”. Further, the “capacity to stimulate HSC release into the S-phase” value in data set [4] was “No capacity to stimulate HSC release into the S-phase was demonstrated”.

For the molecule `CCC[O][Ge]1([OH])[O]C(=O)c2cccc(n2)C(=O)[O]1` [2,6-pyridinediyl-biscarbonylox-(hydroxypropoxygermanium)], in the data set with interferon [5], the “immune interferon inducer properties” value was “possessing the properties of an immune interferon inducer” and the immunomodulating activity entry is “narrow spectrum of the immunomodulating activity”.

With `O=C(O)C[CH2][Ge](=[O])[O][Ge](=[O])[CH2]CC(=O)O` [carboxyethylgermanium-sesquioxide], the γ-interferon synthesis result in the data set on γ-interferon is recorded as “capable of inducing γ-interferon synthesis”. In addition, in the data set with interferon [6], the “interferon production in the blood” value was “capable, upon oral administration, of inducing interferon production in the blood of mice”. In the data set on interferon [5], the “effectiveness as an immune interferon inducer” value is given as “low effectiveness as an immune interferon inducer” and the toxicity result was “has toxicity”.

The values are drawn from US6204276A, “Dicarboxylic germanium complex and its therapeutic use” (Primamedic Ltd., priority 1996, dated 2001).
